Source: patent US7678918B2, “Intermediates for imidazonaphthyridines” (3M Innovative Properties Company, priority 1997, dated 2010)
Counter-ions that a name gives are not always drawn.

What was measured:
IFN = assay: Cytokine Induction in Human Cells: interferon (IFN) secreted by PBMCs, A549/encephalomyocarditis bioassay; format: cell-based; details: 18 to 24 hours; note: call rule not given here
In short: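 Human PBMCs from healthy donors at 1.5-2×10^6 cells/mL in RPMI with 10% FBS, exposed to compounds (typically 0.1 to 100 μM, ≤1% DMSO) for 18 to 24 h at 37° C. Secreted IFN measured by A549/encephalomyocarditis virus cytopathic-effect bioassay, in alpha reference units/mL against NIH human leukocyte IFN standard.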

TNF = assay: Cytokine Induction in Human Cells: tumor necrosis factor (TNF) secreted by PBMCs, ELISA; format: cell-based; details: 18 to 24 hours; note: call rule not given here
In short: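 Human donor PBMCs at 1.5-2×10^6 cells/mL in RPMI with 10% FBS were exposed to compound, generally at 0.1 to 100 μM (≤1% DMSO final), for 18 to 24 h at 37 °C. Secreted TNF in supernatant was measured by ELISA and reported as pg/mL.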

interferon α = assay: Interferon (α) Induction in Human Cells (PBM's, 48 hours, A549 bioassay); format: cell-based; parameters: key: +: indicates that the compound induced interferon α at that particular concentration; −: indicates that the compound did not induce interferon α at that particular concentration; ±: indicates that the results were equivocal at that particular concentration; details: 48 hours incubation
Description: An in vitro human blood cell system was used to assess interferon induction by compounds of the invention. Activity is based on the measurement of interferon secreted into culture media. Interferon is measured by bioassay.
Whole blood was collected by venipuncture into EDTA vacutainer tubes. Peripheral blood mononuclear cells (PBM's) were separated from whole blood by using either LeucoPREP™ Brand Cell Separation Tubes (available from Becton Dickinson) or Ficoll-Paque® solution (available from Pharmacia LKB Biotechnology Inc, Piscataway, N.J.). The PBM's were suspended at 1×10^6/mL in RPMI 1640 media (available from GIBCO, Grand Island, N.Y.) containing 25 mM HEPES (N-2-hydroxyethylpiperazine-N′-2-ethanesulfonic acid) and L-glutamine (1% penicillin-streptomycin solution added) with 10% heat inactivated (56° C. for 30 minutes) autologous serum added. 200 μL portions of PBM suspension were added to 96 well (flat bottom) MicroTest III sterile tissue culture plates.
The compounds were solubilized in ethanol, dimethyl sulfoxide or tissue culture water then diluted with tissue culture water, 0.01N sodium hydroxide or 0.01N hydrochloric acid (The choice of solvent will depend on the chemical characteristics of the compound being tested.). Ethanol or DMSO concentration should not exceed a final concentration of 1% for addition to the culture wells. Compounds were initially tested in a concentration range of from about 0.1 μg/mL to about 5 μg/mL. Compounds which show induction at a concentration of 0.5 μg/mL were then tested in a wider concentration range.
The solution of test compound was added in a volume (less than or equal to 50 μL) to the wells containing 200 μL of diluted whole blood or of PBM's in media. Solvent and/or media was added to control wells (wells with no test compound) and as needed to adjust the final volume of each well to 250 μL. The plates were covered with plastic lids, vortexed gently and then incubated for 48 hours at 37° C. with a 5% carbon dioxide atmosphere.
Following incubation, the plates were covered with parafilm and then centrifuged at 1000 rpm for 10 to 15 minutes at 4° C. in a Damon IEC Model CRU-5000 centrifuge. Media (about 200 μL) was removed from 4 to 8 wells and pooled into 2 mL sterile freezing vials. Samples were maintained at −70° C. until analysis.
Interferon was determined by bioassay using A549 human lung carcinoma cells challenged with encephalomyocarditis. The details of the bioassay method have been described by G. L. Brennan and L. H. Kronenberg in “Automated Bioassay of Interferons in Micro-test Plates”, Biotechniques, June/July 78, 1983, incorporated herein by reference. Briefly stated the method is as follows: interferon dilutions and A549 cells are incubated at 37° C. for 12 to 24 hours. The incubated cells are infected with an inoculum of encephalomyocarditis virus. The infected cells are incubated for an additional period at 37° C. before quantifying for viral cytopathic effect. The viral cytopathic effect is quantified by staining followed by spectrophotometric absorbance measurements. Results are expressed as alpha reference units/mL based on the value obtained for NIH HU IF-L standard. The interferon was identified as essentially all interferon alpha by testing in checkerboard neutralization assays against rabbit anti-human interferon (beta) and goat anti-human interferon (alpha) using A549 cell monolayers challenged with encephalomyocarditis virus.

CCOCC(=O)Nc1cnc2cccnc2c1NCc1ccccc1.Cl
melting point: 205 to 212 °C

CCCCc1nc2c(N)nc3cccnc3c2n1CCNC(=O)CCc1ccccc1 (as salt: hydrochloride) [Example 96, N^1-[2-(4-Amino-2-butyl-1H-imidazo[4,5-c][1,5]naphthyridin-1-yl)ethyl]-3-phenylpropanamide Hydrochloride]
melting point: 183 to 185 °C

O.Oc1cc2nnnn2c2cnccc12 (hydrate or solvate)
melting point: 247 to 248 °C (dec.)

CC(C)Cn1cnc2c(N)nc3ncccc3c21 (hydrate or solvate) [Example 9, 1-(2-Methylpropyl)-1H-imidazo[4,5-c][1,8]naphthyridin-4-amine hydrate]
melting point: 325 to 330 °C (dec.)

CCCCc1nc2c(N)nc3c(c2n1CC(C)C)CCCN3 (hydrate or solvate) [Example 13, 2-Butyl-6,7,8,9-tetrahydro-1-(2-methylpropyl) 1H-imidazo[4,5-c][1,8]naphthyridin-4-amine]
melting point: 81 to 84 °C

CCCCc1nc2c(N)nc3cccnc3c2n1CCCCNC(=O)c1ccc(N2CCOCC2)nc1 (hydrate or solvate) [Example 106, N^1-[4(4-Amino-2-butyl-1H-imidazo[4,5-c][1,5]naphthyridin-1-yl)butyl]-6-morpholinonicotinamide]
melting point: 95 to 100 °C

Cc1nnnn1-c1ncccc1C(=O)O [Example 1, 2-(5-Methyl-1H-tetrazol-1-yl)nicotinic Acid]
melting point: 178 to 180 °C

Oc1cc2nnnn2c2ncccc12 [Example 3, Tetrazolo[1,5-a][1,8]naphthyridin-5-ol]
melting point: 236 °C (dec.)

Clc1cc2nnnn2c2ncccc12 [Example 4, 5-Chlorotetrazolo[1,5-a][1,8]naphthyridine]
melting point: 229 to 230 °C (dec.)

CC(C)CNc1c([N+](=O)[O-])c2nnnn2c2ncccc12 [Example 6, N^5-(2-Methylpropyl)-4-nitrotetrazolo[1,5-a][1,8]naphthyridin-5-amine]
melting point: 171 °C (dec.)

CC(C)Cn1nnn2c3ncccc3c3ncnc-3c12 [Example 8, 1-(2-Methylpropyl)-1H-tetrazolo[1,5-a]imidazo[4,5-c][1,8]naphthyridine]
melting point: 248 to 250 °C (dec.)

CCCCc1nc2c(N)nc3ncccc3c2n1CC(C)C [Example 12, 2-Butyl-1-(2-methylpropyl)-1H-imidazo[4,5-c][1,8]naphthyridin-4-amine]
IFN induction (IFN; Dose Concentration 1.0 μM): +
IFN induction (IFN; Dose Concentration 10.0 μM): +
IFN induction (IFN; Dose Concentration 100.0 μM): +
TNF induction (TNF; Dose Concentration 1.0 μM): +
TNF induction (TNF; Dose Concentration 10.0 μM): +
TNF induction (TNF; Dose Concentration 100.0 μM): +
Interferon (α) Induction in Human Cells (interferon α; Dose Concentration 0.01 μg/mL): −
Interferon (α) Induction in Human Cells (interferon α; Dose Concentration 0.05 μg/mL): −
Interferon (α) Induction in Human Cells (interferon α; Dose Concentration 0.10 μg/mL): +
Interferon (α) Induction in Human Cells (interferon α; Dose Concentration 0.50 μg/mL): +
Interferon (α) Induction in Human Cells (interferon α; Dose Concentration 1.0 μg/mL): +
Interferon (α) Induction in Human Cells (interferon α; Dose Concentration 5.0 μg/mL): +
Interferon (α) Induction in Human Cells (interferon α; Dose Concentration 10.0 μg/mL): +
Interferon (α) Induction in Human Cells (interferon α; Dose Concentration 25.0 μg/mL): +
Interferon (α) Induction in Human Cells (interferon α; Dose Concentration 50.0 μg/mL): +

CCCCc1nc2c(N)nc3c(c2n1CC(C)C)CCCN3 [Example 13, 2-Butyl-6,7,8,9-tetrahydro-1-(2-methylpropyl) 1H-imidazo[4,5-c][1,8]naphthyridin-4-amine]
IFN induction (IFN; Dose Concentration 1.0 μM): +
IFN induction (IFN; Dose Concentration 10.0 μM): +
IFN induction (IFN; Dose Concentration 100.0 μM): +
TNF induction (TNF; Dose Concentration 1.0 μM): +
TNF induction (TNF; Dose Concentration 10.0 μM): +
TNF induction (TNF; Dose Concentration 100.0 μM): +
Interferon (α) Induction in Human Cells (interferon α; Dose Concentration 0.01 μg/mL): −
Interferon (α) Induction in Human Cells (interferon α; Dose Concentration 0.05 μg/mL): +
Interferon (α) Induction in Human Cells (interferon α; Dose Concentration 0.10 μg/mL): +
Interferon (α) Induction in Human Cells (interferon α; Dose Concentration 0.50 μg/mL): +
Interferon (α) Induction in Human Cells (interferon α; Dose Concentration 1.0 μg/mL): +
Interferon (α) Induction in Human Cells (interferon α; Dose Concentration 5.0 μg/mL): +
Interferon (α) Induction in Human Cells (interferon α; Dose Concentration 10.0 μg/mL): +
Interferon (α) Induction in Human Cells (interferon α; Dose Concentration 25.0 μg/mL): +
Interferon (α) Induction in Human Cells (interferon α; Dose Concentration 50.0 μg/mL): +

Cc1nnnn1-c1cnccc1C(=O)O [Example 14, 3-(5-Methyl-1H-tetrazol-1-yl)pyridine-4-carboxylic acid]
melting point: 214 to 215 °C (dec.)

Clc1cc2nnnn2c2cnccc12 [Example 17, 5-Chlorotetrazolo[1,5-a][1,7]naphthyridine]
melting point: 176 to 177 °C

CC(C)CNc1cc2nnnn2c2cnccc12 [Example 18, N^5-(2-Methylpropyl)tetrazolo[1,5-a][1,7]naphthyridin-5-amine]
melting point: 220 to 221 °C

CC(C)CNc1c([N+](=O)[O-])c2nnnn2c2cnccc12 [Example 19, N^5-(2-Methylpropyl)-4-nitrotetrazolo[1,5-a][1,7]naphthyridin-5-amine]
melting point: 173 to 174 °C

CC(C)CNc1c(N)c2nnnn2c2cnccc12 [Example 20, N^5-(2-Methylpropyl)tetrazolo[1,5-a][1,7]naphthyridin-4,5-diamine]
melting point: 203 to 204.5 °C

CC(C)Cn1nnc2c3ncnc-3c3ccncc3n21 [Example 21, 1-(2-Methylpropyl)-1H-tetrazolo[1,5-a]imidazo[4,5-c][1,7]naphthyridine]
melting point: 181 to 182.5 °C

CC(C)CNc1c([N+](=O)[O-])cnc2cccnc12 [Example 29, N^4-(2-Methylpropyl)-3-nitro[1,5]naphthyridin-4-amine]
melting point: 97 to 99 °C

CC(C)Cn1cnc2cnc3cccnc3c21 [Example 30, 1-(2-Methylpropyl)-1H-imidazo[4,5-c][1,5]naphthyridine]
melting point: 82 to 84 °C

Cc1nc2cnc3cccnc3c2n1CC(C)C [Example 34, 2-Methyl-1-(2-methylpropyl)-1H-imidazo[4,5-c][1,5]naphthyridine]
melting point: 118 to 119 °C

CCCCc1nc2c(N)nc3cccnc3c2n1CC(C)C [Example 39, 2-Butyl-1-(2-methylpropyl)-1H-imidazo[4,5-c][1,5]naphthyridin-4-amine]
IFN induction (IFN; Dose Concentration 1.0 μM): +
IFN induction (IFN; Dose Concentration 10.0 μM): +
IFN induction (IFN; Dose Concentration 100.0 μM): −
TNF induction (TNF; Dose Concentration 1.0 μM): +
TNF induction (TNF; Dose Concentration 10.0 μM): +
TNF induction (TNF; Dose Concentration 100.0 μM): −
Interferon (α) Induction in Human Cells (interferon α; Dose Concentration 0.01 μg/mL): −
Interferon (α) Induction in Human Cells (interferon α; Dose Concentration 0.05 μg/mL): −
Interferon (α) Induction in Human Cells (interferon α; Dose Concentration 0.10 μg/mL): +
Interferon (α) Induction in Human Cells (interferon α; Dose Concentration 0.50 μg/mL): +
Interferon (α) Induction in Human Cells (interferon α; Dose Concentration 1.0 μg/mL): +
Interferon (α) Induction in Human Cells (interferon α; Dose Concentration 5.0 μg/mL): +
Interferon (α) Induction in Human Cells (interferon α; Dose Concentration 10.0 μg/mL): +
Interferon (α) Induction in Human Cells (interferon α; Dose Concentration 25.0 μg/mL): +
Interferon (α) Induction in Human Cells (interferon α; Dose Concentration 50.0 μg/mL): +

CCCCc1nc2c(N)nc3c(c2n1CC(C)C)NCCC3 [Example 40, 6,7,8,9-Tetrahydro-2-butyl-1-(2-methylpropyl)-1H-imidazo[4,5-c][1,5]naphthyridin-4-amine]
IFN induction (IFN; Dose Concentration 1.0 μM): +
IFN induction (IFN; Dose Concentration 10.0 μM): +
IFN induction (IFN; Dose Concentration 100.0 μM): ±
TNF induction (TNF; Dose Concentration 1.0 μM): +
TNF induction (TNF; Dose Concentration 10.0 μM): +
TNF induction (TNF; Dose Concentration 100.0 μM): +
Interferon (α) Induction in Human Cells (interferon α; Dose Concentration 0.01 μg/mL): −
Interferon (α) Induction in Human Cells (interferon α; Dose Concentration 0.05 μg/mL): +
Interferon (α) Induction in Human Cells (interferon α; Dose Concentration 0.10 μg/mL): +
Interferon (α) Induction in Human Cells (interferon α; Dose Concentration 0.50 μg/mL): +
Interferon (α) Induction in Human Cells (interferon α; Dose Concentration 1.0 μg/mL): +
Interferon (α) Induction in Human Cells (interferon α; Dose Concentration 5.0 μg/mL): +
Interferon (α) Induction in Human Cells (interferon α; Dose Concentration 10.0 μg/mL): +
Interferon (α) Induction in Human Cells (interferon α; Dose Concentration 25.0 μg/mL): +
Interferon (α) Induction in Human Cells (interferon α; Dose Concentration 50.0 μg/mL): +
